Measured values reported in patent publication US10500261B2 (priority 2014, dated 2019).
Entries after “also recorded” stand apart in the source; their conditions may differ.

Legend:
[1] = tested on: HS1 CPS conjugate antisera; type: binding, mouse
[2] = tested on: HS3 CPS conjugate antisera; type: binding, mouse
[3] = tested on: HS23/36 CPS conjugate antisera; type: binding, rabbit
[4] = tested on: HS4 CPS conjugate antisera; type: binding, rabbit

COc1ccc(O[C@H]2O[C@H](COP(N)(=O)OC)[C@H](O)[C@H](O)[C@H]2O)cc1 (stereo partly drawn) [MeOPN→6-α-D-Galp-(1→OMP, 4-Methoxyphenyl 6-O-methyl-phosphoramidate-α-D-galactopyranoside]
recognition by HS1 CPS-CRM197 conjugate antiserum [1]: reacted to MeOPN-6-Gal, although to a somewhat lesser extent; also recorded: weaker intensity
recognition by HS3 CPS-CRM197 conjugate antiserum [2]: did not react
recognition by HS23/36 CPS-CRM197 conjugate antiserum [3]: recognized; also recorded: strongly recognized; also recorded: detected
recognition by HS4 CPS-CRM197 conjugate antiserum [4]: elicited a response equivalent to anti-HS23/36 CRM197 conjugate; also recorded: strongly recognized

COc1ccc(O[C@H]2O[C@H](CO)[C@H](O)[C@H](O)[C@H]2O)cc1 [α-D-Gal-(1-OMP, 4-methoxyphenyl-α-D-galactopyranoside, reference compound]
recognition by HS23/36 CPS-CRM197 conjugate antiserum [3]: No reaction was observed
